Measurements published in ChEMBL document CHEMBL3885861, “Open TG-GATES”.

Organism: Rattus norvegicus
Assay: Open TG-GATES - Regimen: Daily Repeat
Type: toxicity, organism-based, Sprague-Dawley
Parameters: regimen Daily Repeat, gender Male, age 6 weeks
Conditions: in vivo, po, route gavage; for APTT / Bas / Eos / Fbg / Hb / Ht / Lym / MCH / MCHC / MCV / Mono / Neu / PT / Plat / RBC / Ret / WBC: tissue Blood; for KIDNEY_L / KIDNEY_R / KIDNEY_TOTAL: tissue Kidney; for LIVER: tissue Liver; for A/G / ALP / ALT / AST / BUN / CRE / Ca / Cl / DBIL / GLC / IP / K / LDH / Na / PL / RALB / TBIL / TC / TG / TP / gamma-GTP: tissue Plasma
[1] = 300 mg/kg, 72 h, dose level Middle, time 3 day
[2] = 300 mg/kg, […], dose level Middle, time 7 day
[3] = 300 mg/kg, […], dose level Middle, time 14 day
[4] = 300 mg/kg, […], dose level Middle, time 28 day
[5] = 1000 mg/kg, 72 h, dose level High, time 3 day
[6] = 1000 mg/kg, […], dose level High, time 7 day
[7] = 1000 mg/kg, […], dose level High, time 14 day
[8] = 1000 mg/kg, […], dose level High, time 28 day

## CCOc1ccc(NC(=O)CC(C)O)cc1 (centres undefined) [BUCETIN]
[1]
  TERMINAL_BW: 247.8 g
  APTT: 18.9 s
  Bas: 0%
  Eos: 1.2%
  Fbg: 291.2 mg/dL
  Hb: 13.1 g/dL
  Ht: 39.1%
  Lym: 72.8%
  MCH: 20.5 pg
  MCHC: 33.4%
  MCV: 61.3 fL
  Mono: 3.4%
  Neu: 21.6%
  PT: 14.2 s
  Plat: 123.5 x10_4/uL
  RBC: 638.8 x10_4/ul
  Ret: 6.8%
  WBC: 109.9 x10_2/uL
  KIDNEY_L: 1 g
  KIDNEY_R: 1 g
  KIDNEY_TOTAL: 2 g
  LIVER: 11.7 g
  A/G: 0.9
  ALP: 1855.6 IU/L
  ALT: 39.2 IU/L
  AST: 68.2 IU/L
  BUN: 15.2 mg/dL
  CRE: 0.2 mg/dL
  Ca: 10.8 mg/dL
  Cl: 104.8 meq/L
  DBIL: 0.024 mg/dL
  GLC: 184 mg/dL
  IP: 6.9 mg/dL
  K: 4.2 meq/L
  LDH: 99.6 IU/L
  Na: 143.4 meq/L
  PL: 164.2 mg/dL
  RALB: 2.7 g/dL
  TBIL: 0.052 mg/dL
  TC: 82.8 mg/dL
  TG: 116.2 mg/dL
  TP: 5.8 g/dL
  gamma-GTP: 1 IU/L
[2]
  TERMINAL_BW: 289.1 g
  APTT: 16.1 s
  Bas: 0%
  Eos: 1%
  Fbg: 278.6 mg/dL
  Hb: 13.4 g/dL
  Ht: 39.6%
  Lym: 74%
  MCH: 21.1 pg
  MCHC: 33.7%
  MCV: 62.5 fL
  Mono: 2.8%
  Neu: 21.6%
  PT: 14 s
  Plat: 120 x10_4/uL
  RBC: 634.2 x10_4/ul
  Ret: 6.8%
  WBC: 107.3 x10_2/uL
  KIDNEY_L: 1.2 g
  KIDNEY_R: 1.1 g
  KIDNEY_TOTAL: 2.3 g
  LIVER: 13.6 g
  A/G: 0.8
  ALP: 1676.6 IU/L
  ALT: 42.4 IU/L
  AST: 67.4 IU/L
  BUN: 15.8 mg/dL
  CRE: 0.2 mg/dL
  Ca: 11 mg/dL
  Cl: 105.2 meq/L
  DBIL: 0.018 mg/dL
  GLC: 190.6 mg/dL
  IP: 6.6 mg/dL
  K: 4.2 meq/L
  LDH: 115.2 IU/L
  Na: 143.8 meq/L
  PL: 178 mg/dL
  RALB: 2.7 g/dL
  TBIL: 0.04 mg/dL
  TC: 91.2 mg/dL
  TG: 131.2 mg/dL
  TP: 5.9 g/dL
  gamma-GTP: 1 IU/L
[3]
  TERMINAL_BW: 360.7 g
  APTT: 15.9 s
  Bas: 0%
  Eos: 1%
  Fbg: 312 mg/dL
  Hb: 14.4 g/dL
  Ht: 42.4%
  Lym: 75.2%
  MCH: 20.8 pg
  MCHC: 34.1%
  MCV: 61 fL
  Mono: 2.4%
  Neu: 21.2%
  PT: 13.8 s
  Plat: 113 x10_4/uL
  RBC: 695.6 x10_4/ul
  Ret: 4.7%
  WBC: 106.6 x10_2/uL
  KIDNEY_L: 1.4 g
  KIDNEY_R: 1.4 g
  KIDNEY_TOTAL: 2.7 g
  LIVER: 17.2 g
  A/G: 0.8
  ALP: 1729.4 IU/L
  ALT: 34.2 IU/L
  AST: 63 IU/L
  BUN: 15 mg/dL
  CRE: 0.2 mg/dL
  Ca: 11.2 mg/dL
  Cl: 104 meq/L
  DBIL: 0.02 mg/dL
  GLC: 189.4 mg/dL
  IP: 6.9 mg/dL
  K: 4 meq/L
  LDH: 72.8 IU/L
  Na: 143.4 meq/L
  PL: 179.2 mg/dL
  RALB: 2.8 g/dL
  TBIL: 0.048 mg/dL
  TC: 79.8 mg/dL
  TG: 208.6 mg/dL
  TP: 6.3 g/dL
  gamma-GTP: 1 IU/L
[4]
  TERMINAL_BW: 431.8 g
  APTT: 18.8 s
  Bas: 0%
  Eos: 1.4%
  Fbg: 274 mg/dL
  Hb: 14.7 g/dL
  Ht: 42.6%
  Lym: 74.6%
  MCH: 19.3 pg
  MCHC: 34.5%
  MCV: 56 fL
  Mono: 2.2%
  Neu: 20.6%
  PT: 14.1 s
  Plat: 106.2 x10_4/uL
  RBC: 760 x10_4/ul
  Ret: 3.5%
  WBC: 138.7 x10_2/uL
  KIDNEY_L: 1.6 g
  KIDNEY_R: 1.6 g
  KIDNEY_TOTAL: 3.2 g
  LIVER: 18.4 g
  A/G: 0.8
  ALP: 1081.4 IU/L
  ALT: 39 IU/L
  AST: 62.4 IU/L
  BUN: 15.2 mg/dL
  CRE: 0.3 mg/dL
  Ca: 11.2 mg/dL
  Cl: 104.8 meq/L
  DBIL: 0.028 mg/dL
  GLC: 188.8 mg/dL
  IP: 6.3 mg/dL
  K: 3.8 meq/L
  LDH: 78.8 IU/L
  Na: 145.4 meq/L
  PL: 170.6 mg/dL
  RALB: 2.8 g/dL
  TBIL: 0.07 mg/dL
  TC: 77.2 mg/dL
  TG: 188.2 mg/dL
  TP: 6.3 g/dL
  gamma-GTP: 1 IU/L
[5]
  TERMINAL_BW: 228.7 g
  APTT: 18.5 s
  Bas: 0%
  Eos: 0.8%
  Fbg: 270.2 mg/dL
  Hb: 12.8 g/dL
  Ht: 38.4%
  Lym: 72.6%
  MCH: 20.7 pg
  MCHC: 33.4%
  MCV: 61.9 fL
  Mono: 2.8%
  Neu: 22.6%
  PT: 14.1 s
  Plat: 123.8 x10_4/uL
  RBC: 620 x10_4/ul
  Ret: 2.9%
  WBC: 111.1 x10_2/uL
  KIDNEY_L: 1.1 g
  KIDNEY_R: 1 g
  KIDNEY_TOTAL: 2.1 g
  LIVER: 11.8 g
  A/G: 0.9
  ALP: 1511.6 IU/L
  ALT: 41.2 IU/L
  AST: 74 IU/L
  BUN: 15.4 mg/dL
  CRE: 0.2 mg/dL
  Ca: 10.6 mg/dL
  Cl: 106.8 meq/L
  DBIL: 0.028 mg/dL
  GLC: 168 mg/dL
  IP: 6.2 mg/dL
  K: 4.3 meq/L
  LDH: 76 IU/L
  Na: 144.6 meq/L
  PL: 161.4 mg/dL
  RALB: 2.6 g/dL
  TBIL: 0.06 mg/dL
  TC: 78.6 mg/dL
  TG: 102.2 mg/dL
  TP: 5.6 g/dL
  gamma-GTP: 1.2 IU/L
[6]
  TERMINAL_BW: 268.8 g
  APTT: 20.3 s
  Bas: 0%
  Eos: 1%
  Fbg: 270.6 mg/dL
  Hb: 12.7 g/dL
  Ht: 38.7%
  Lym: 67.2%
  MCH: 21 pg
  MCHC: 32.9%
  MCV: 64 fL
  Mono: 3.4%
  Neu: 27.6%
  PT: 14.3 s
  Plat: 126.9 x10_4/uL
  RBC: 606 x10_4/ul
  Ret: 9.2%
  WBC: 166.9 x10_2/uL
  KIDNEY_L: 1.1 g
  KIDNEY_R: 1.1 g
  KIDNEY_TOTAL: 2.3 g
  LIVER: 12.7 g
  A/G: 0.8
  ALP: 1387.6 IU/L
  ALT: 50 IU/L
  AST: 79.4 IU/L
  BUN: 16 mg/dL
  CRE: 0.2 mg/dL
  Ca: 10.9 mg/dL
  Cl: 106.2 meq/L
  DBIL: 0.032 mg/dL
  GLC: 180.8 mg/dL
  IP: 6.6 mg/dL
  K: 4.4 meq/L
  LDH: 97.4 IU/L
  Na: 144.4 meq/L
  PL: 162.8 mg/dL
  RALB: 2.8 g/dL
  TBIL: 0.08 mg/dL
  TC: 74.6 mg/dL
  TG: 133.4 mg/dL
  TP: 6 g/dL
  gamma-GTP: 1 IU/L
[7]
  TERMINAL_BW: 329.1 g
  APTT: 21.6 s
  Bas: 0.8%
  Eos: 0.6%
  Fbg: 295.4 mg/dL
  Hb: 12.9 g/dL
  Ht: 39.7%
  Lym: 69.2%
  MCH: 22.9 pg
  MCHC: 32.7%
  MCV: 70.1 fL
  Mono: 3%
  Neu: 26.2%
  PT: 14.3 s
  Plat: 126.3 x10_4/uL
  RBC: 567.8 x10_4/ul
  Ret: 10.4%
  WBC: 123.6 x10_2/uL
  KIDNEY_L: 1.3 g
  KIDNEY_R: 1.3 g
  KIDNEY_TOTAL: 2.7 g
  LIVER: 14.6 g
  A/G: 0.8
  ALP: 1241.8 IU/L
  ALT: 42.6 IU/L
  AST: 73.4 IU/L
  BUN: 14.2 mg/dL
  CRE: 0.2 mg/dL
  Ca: 10.8 mg/dL
  Cl: 105.8 meq/L
  DBIL: 0.036 mg/dL
  GLC: 170.4 mg/dL
  IP: 6.5 mg/dL
  K: 4.4 meq/L
  LDH: 97.8 IU/L
  Na: 143.6 meq/L
  PL: 150.8 mg/dL
  RALB: 2.8 g/dL
  TBIL: 0.1 mg/dL
  TC: 71.6 mg/dL
  TG: 91.2 mg/dL
  TP: 6.1 g/dL
  gamma-GTP: 1 IU/L
[8]
  TERMINAL_BW: 402.4 g
  APTT: 19.3 s
  Bas: 0.6%
  Eos: 1.2%
  Fbg: 278.2 mg/dL
  Hb: 14.3 g/dL
  Ht: 42.1%
  Lym: 78.2%
  MCH: 23.2 pg
  MCHC: 34%
  MCV: 68.4 fL
  Mono: 2.2%
  Neu: 17.4%
  PT: 14.4 s
  Plat: 102.2 x10_4/uL
  RBC: 618.4 x10_4/ul
  Ret: 8%
  WBC: 137.4 x10_2/uL
  KIDNEY_L: 1.6 g
  KIDNEY_R: 1.5 g
  KIDNEY_TOTAL: 3.1 g
  LIVER: 17.3 g
  A/G: 0.8
  ALP: 1352.6 IU/L
  ALT: 36.4 IU/L
  AST: 65 IU/L
  BUN: 16.8 mg/dL
  CRE: 0.3 mg/dL
  Ca: 11 mg/dL
  Cl: 104 meq/L
  DBIL: 0.042 mg/dL
  GLC: 182.2 mg/dL
  IP: 6.5 mg/dL
  K: 4 meq/L
  LDH: 93.4 IU/L
  Na: 143.8 meq/L
  PL: 155.8 mg/dL
  RALB: 2.9 g/dL
  TBIL: 0.1 mg/dL
  TC: 71.2 mg/dL
  TG: 117.2 mg/dL
  TP: 6.4 g/dL
  gamma-GTP: 1.4 IU/L
